{"source": "patent US11203563B2", "about": "“Preparation of zinc linolenate, and application of zinc linolenate in preparing anti-helicobacter pylori drug” (NANJING MEDICAL UNIVERSITY, priority 2018, dated 2021)", "experiment_in_all_cases": "MIC by microdilution method, non-Helicobacter pylori bacteria", "type_in_all_cases": "cell-based", "set-up_in_all_cases": "key: +: Bacterial growth; −: No bacterial growth", "details_in_all_cases": "72 h", "key": {"[1]": {"test_system": "Bacillus subtilis (168)", "description": "(§1) 2.2 Detection of minimum inhibitory concentration (MIC, 100 µL system) of zinc linolenate for non-Helicobacter pylori bacteria by microdilution method\n(§2) (1) Zinc linolenate (2 mg/mL) is prepared.\n(§3) (3) Bacterial solution preparation: the non-Helicobacter pylori grown in a log phase on a solid plate is taken to make a bacterial suspension with a BHI culture medium, the absorbance (OD600) is adjusted to 0.3 (1×10^8 CFU/mL), and the bacterial suspension is diluted 100 times to 1×10^6 CFU/mL for use.\n(§4) (4) Inoculation of bacterial solution: 10 μL of bacterial solution above is taken and added to the 1-8th wells (the concentration of the bacterial solution per well is about 1.0×10^5 CFU/mL). Culture is performed for 72 h to judge the result. The drug concentrations of the first-seventh wells are 128, 64, 32, 16, 8, 4, and 2 μg/mL, respectively.\n(§5) The experiment only makes sense when the bacteria obviously grow in the 8th well, i.e. the positive control well (without antibiotics). When a single drift occurs in the microdilution method, the maximum drug concentration that inhibits bacterial growth should be recorded. If there are multiple drifts, the results should not be reported and the experiment should be repeated. The experiment is repeated 3 times for each drug."}, "[2]": {"test_system": "Candida albicans", "description": "as §1, §2, §3, §4, §5"}, "[3]": {"test_system": "Enterobacter cloacae (ATCC13047)", "description": "as §1, §2, §3, §4, §5"}, "[4]": {"test_system": "Enterococcus faecalis (ATCC19434)", "description": "as §1, §2, §3, §4, §5"}, "[5]": {"test_system": "Enterococcus faecium (ATCC19434)", "description": "as §1, §2, §3, §4, §5"}, "[6]": {"test_system": "Escherichia coli (MG1655)", "description": "as §1, §2, §3, §4, §5"}, "[7]": {"test_system": "Haemophilus influenzae (ATCC49766)", "description": "as §1, §2, §3, §4, §5"}, "[8]": {"test_system": "Klebsiella pneumoniae (YF173002)", "description": "as §1, §2, §3, §4, §5"}, "[9]": {"test_system": "Lactobacillus", "description": "as §1, §2, §3, §4, §5"}, "[10]": {"test_system": "Listeria", "description": "as §1, §2, §3, §4, §5"}, "[11]": {"test_system": "Mycobacterium smegmatis (MC^2 155)", "description": "as §1, §2, §3, §4, §5"}, "[12]": {"test_system": "Pseudomonas aeruginosa (PA01)", "description": "as §1, §2, §3, §4, §5"}, "[13]": {"test_system": "Shigella dysenteriae", "description": "as §1, §2, §3, §4, §5"}, "[14]": {"test_system": "Stenotrophomonas maltophilia", "description": "as §1, §2, §3, §4, §5"}}, "data": [{"compound": "CC/C=C\\C/C=C\\C/C=C\\CCCCCCCC(=O)[O-].CC/C=C\\C/C=C\\C/C=C\\CCCCCCCC(=O)[O-].[Zn+2]", "note": "[zinc linolenate]", "values": [{"measurement": "Bacterial growth", "setting": "[1]; zinc linolenate 2 μg/ml", "result": "+"}, {"measurement": "Bacterial growth", "setting": "[1]; zinc linolenate 4 μg/ml", "result": "+"}, {"measurement": "Bacterial growth", "setting": "[1]; zinc linolenate 8 μg/ml", "result": "+"}, {"measurement": "Bacterial growth", "setting": "[1]; zinc linolenate 16 μg/ml", "result": "+"}, {"measurement": "Bacterial growth", "setting": "[1]; zinc linolenate 32 μg/ml", "result": "+"}, {"measurement": "Bacterial growth", "setting": "[1]; zinc linolenate 64 μg/ml", "result": "+"}, {"measurement": "Bacterial growth", "setting": "[1]; zinc linolenate 128 μg/ml", "result": "+"}, {"measurement": "Bacterial growth", "setting": "[2]; zinc linolenate 2 μg/ml", "result": "+"}, {"measurement": "Bacterial growth", "setting": "[2]; zinc linolenate 4 μg/ml", "result": "+"}, {"measurement": "Bacterial growth", "setting": "[2]; zinc linolenate 8 μg/ml", "result": "+"}, {"measurement": "Bacterial growth", "setting": "[2]; zinc linolenate 16 μg/ml", "result": "+"}, {"measurement": "Bacterial growth", "setting": "[2]; zinc linolenate 32 μg/ml", "result": "+"}, {"measurement": "Bacterial growth", "setting": "[2]; zinc linolenate 64 μg/ml", "result": "+"}, {"measurement": "Bacterial growth", "setting": "[2]; zinc linolenate 128 μg/ml", "result": "+"}, {"measurement": "Bacterial growth", "setting": "[3]; zinc linolenate 2 μg/ml", "result": "+"}, {"measurement": "Bacterial growth", "setting": "[3]; zinc linolenate 4 μg/ml", "result": "+"}, {"measurement": "Bacterial growth", "setting": "[3]; zinc linolenate 8 μg/ml", "result": "+"}, {"measurement": "Bacterial growth", "setting": "[3]; zinc linolenate 16 μg/ml", "result": "+"}, {"measurement": "Bacterial growth", "setting": "[3]; zinc linolenate 32 μg/ml", "result": "+"}, {"measurement": "Bacterial growth", "setting": "[3]; zinc linolenate 64 μg/ml", "result": "+"}, {"measurement": "Bacterial growth", "setting": "[3]; zinc linolenate 128 μg/ml", "result": "+"}, {"measurement": "Bacterial growth", "setting": "[4]; zinc linolenate 2 μg/ml", "result": "+"}, {"measurement": "Bacterial growth", "setting": "[4]; zinc linolenate 4 μg/ml", "result": "+"}, {"measurement": "Bacterial growth", "setting": "[4]; zinc linolenate 8 μg/ml", "result": "+"}, {"measurement": "Bacterial growth", "setting": "[4]; zinc linolenate 16 μg/ml", "result": "+"}, {"measurement": "Bacterial growth", "setting": "[4]; zinc linolenate 32 μg/ml", "result": "+"}, {"measurement": "Bacterial growth", "setting": "[4]; zinc linolenate 64 μg/ml", "result": "+"}, {"measurement": "Bacterial growth", "setting": "[4]; zinc linolenate 128 μg/ml", "result": "−"}, {"measurement": "Bacterial growth", "setting": "[5]; zinc linolenate 2 μg/ml", "result": "+"}, {"measurement": "Bacterial growth", "setting": "[5]; zinc linolenate 4 μg/ml", "result": "+"}, {"measurement": "Bacterial growth", "setting": "[5]; zinc linolenate 8 μg/ml", "result": "+"}, {"measurement": "Bacterial growth", "setting": "[5]; zinc linolenate 16 μg/ml", "result": "+"}, {"measurement": "Bacterial growth", "setting": "[5]; zinc linolenate 32 μg/ml", "result": "+"}, {"measurement": "Bacterial growth", "setting": "[5]; zinc linolenate 64 μg/ml", "result": "+"}, {"measurement": "Bacterial growth", "setting": "[5]; zinc linolenate 128 μg/ml", "result": "+"}, {"measurement": "Bacterial growth", "setting": "[6]; zinc linolenate 2 μg/ml", "result": "+"}, {"measurement": "Bacterial growth", "setting": "[6]; zinc linolenate 4 μg/ml", "result": "+"}, {"measurement": "Bacterial growth", "setting": "[6]; zinc linolenate 8 μg/ml", "result": "+"}, {"measurement": "Bacterial growth", "setting": "[6]; zinc linolenate 16 μg/ml", "result": "+"}, {"measurement": "Bacterial growth", "setting": "[6]; zinc linolenate 32 μg/ml", "result": "+"}, {"measurement": "Bacterial growth", "setting": "[6]; zinc linolenate 64 μg/ml", "result": "+"}, {"measurement": "Bacterial growth", "setting": "[6]; zinc linolenate 128 μg/ml", "result": "−"}, {"measurement": "Bacterial growth", "setting": "[7]; zinc linolenate 2 μg/ml", "result": "+"}, {"measurement": "Bacterial growth", "setting": "[7]; zinc linolenate 4 μg/ml", "result": "+"}, {"measurement": "Bacterial growth", "setting": "[7]; zinc linolenate 8 μg/ml", "result": "+"}, {"measurement": "Bacterial growth", "setting": "[7]; zinc linolenate 16 μg/ml", "result": "+"}, {"measurement": "Bacterial growth", "setting": "[7]; zinc linolenate 32 μg/ml", "result": "+"}, {"measurement": "Bacterial growth", "setting": "[7]; zinc linolenate 64 μg/ml", "result": "+"}, {"measurement": "Bacterial growth", "setting": "[7]; zinc linolenate 128 μg/ml", "result": "+"}, {"measurement": "Bacterial growth", "setting": "[8]; zinc linolenate 2 μg/ml", "result": "+"}, {"measurement": "Bacterial growth", "setting": "[8]; zinc linolenate 4 μg/ml", "result": "+"}, {"measurement": "Bacterial growth", "setting": "[8]; zinc linolenate 8 μg/ml", "result": "+"}, {"measurement": "Bacterial growth", "setting": "[8]; zinc linolenate 16 μg/ml", "result": "+"}, {"measurement": "Bacterial growth", "setting": "[8]; zinc linolenate 32 μg/ml", "result": "+"}, {"measurement": "Bacterial growth", "setting": "[8]; zinc linolenate 64 μg/ml", "result": "+"}, {"measurement": "Bacterial growth", "setting": "[8]; zinc linolenate 128 μg/ml", "result": "−"}, {"measurement": "Bacterial growth", "setting": "[9]; zinc linolenate 2 μg/ml", "result": "+"}, {"measurement": "Bacterial growth", "setting": "[9]; zinc linolenate 4 μg/ml", "result": "+"}, {"measurement": "Bacterial growth", "setting": "[9]; zinc linolenate 8 μg/ml", "result": "+"}, {"measurement": "Bacterial growth", "setting": "[9]; zinc linolenate 16 μg/ml", "result": "+"}, {"measurement": "Bacterial growth", "setting": "[9]; zinc linolenate 32 μg/ml", "result": "+"}, {"measurement": "Bacterial growth", "setting": "[9]; zinc linolenate 64 μg/ml", "result": "+"}, {"measurement": "Bacterial growth", "setting": "[9]; zinc linolenate 128 μg/ml", "result": "−"}, {"measurement": "Bacterial growth", "setting": "[10]; zinc linolenate 2 μg/ml", "result": "+"}, {"measurement": "Bacterial growth", "setting": "[10]; zinc linolenate 4 μg/ml", "result": "+"}, {"measurement": "Bacterial growth", "setting": "[10]; zinc linolenate 8 μg/ml", "result": "+"}, {"measurement": "Bacterial growth", "setting": "[10]; zinc linolenate 16 μg/ml", "result": "+"}, {"measurement": "Bacterial growth", "setting": "[10]; zinc linolenate 32 μg/ml", "result": "+"}, {"measurement": "Bacterial growth", "setting": "[10]; zinc linolenate 64 μg/ml", "result": "+"}, {"measurement": "Bacterial growth", "setting": "[10]; zinc linolenate 128 μg/ml", "result": "+"}, {"measurement": "Bacterial growth", "setting": "[11]; zinc linolenate 2 μg/ml", "result": "+"}, {"measurement": "Bacterial growth", "setting": "[11]; zinc linolenate 4 μg/ml", "result": "+"}, {"measurement": "Bacterial growth", "setting": "[11]; zinc linolenate 8 μg/ml", "result": "+"}, {"measurement": "Bacterial growth", "setting": "[11]; zinc linolenate 16 μg/ml", "result": "+"}, {"measurement": "Bacterial growth", "setting": "[11]; zinc linolenate 32 μg/ml", "result": "+"}, {"measurement": "Bacterial growth", "setting": "[11]; zinc linolenate 64 μg/ml", "result": "+"}, {"measurement": "Bacterial growth", "setting": "[11]; zinc linolenate 128 μg/ml", "result": "+"}, {"measurement": "Bacterial growth", "setting": "[12]; zinc linolenate 2 μg/ml", "result": "+"}, {"measurement": "Bacterial growth", "setting": "[12]; zinc linolenate 4 μg/ml", "result": "+"}, {"measurement": "Bacterial growth", "setting": "[12]; zinc linolenate 8 μg/ml", "result": "+"}, {"measurement": "Bacterial growth", "setting": "[12]; zinc linolenate 16 μg/ml", "result": "+"}, {"measurement": "Bacterial growth", "setting": "[12]; zinc linolenate 32 μg/ml", "result": "+"}, {"measurement": "Bacterial growth", "setting": "[12]; zinc linolenate 64 μg/ml", "result": "+"}, {"measurement": "Bacterial growth", "setting": "[12]; zinc linolenate 128 μg/ml", "result": "+"}, {"measurement": "Bacterial growth", "setting": "[13]; zinc linolenate 2 μg/ml", "result": "+"}, {"measurement": "Bacterial growth", "setting": "[13]; zinc linolenate 4 μg/ml", "result": "+"}, {"measurement": "Bacterial growth", "setting": "[13]; zinc linolenate 8 μg/ml", "result": "+"}, {"measurement": "Bacterial growth", "setting": "[13]; zinc linolenate 16 μg/ml", "result": "+"}, {"measurement": "Bacterial growth", "setting": "[13]; zinc linolenate 32 μg/ml", "result": "+"}, {"measurement": "Bacterial growth", "setting": "[13]; zinc linolenate 64 μg/ml", "result": "+"}, {"measurement": "Bacterial growth", "setting": "[13]; zinc linolenate 128 μg/ml", "result": "−"}, {"measurement": "Bacterial growth", "setting": "[14]; zinc linolenate 2 μg/ml", "result": "+"}, {"measurement": "Bacterial growth", "setting": "[14]; zinc linolenate 4 μg/ml", "result": "+"}, {"measurement": "Bacterial growth", "setting": "[14]; zinc linolenate 8 μg/ml", "result": "+"}, {"measurement": "Bacterial growth", "setting": "[14]; zinc linolenate 16 μg/ml", "result": "+"}, {"measurement": "Bacterial growth", "setting": "[14]; zinc linolenate 32 μg/ml", "result": "+"}, {"measurement": "Bacterial growth", "setting": "[14]; zinc linolenate 64 μg/ml", "result": "+"}, {"measurement": "Bacterial growth", "setting": "[14]; zinc linolenate 128 μg/ml", "result": "−"}]}]}
